# Laboratory results reported in publication PMC11920646 (Frontiers in Pharmacology, 2025).
# Several values for one entry are separate records, joined by “and”; a condition that tells them apart may be missing. Identical values can stand only once.
# Key:
# human MR = biological target: T1, human MR (Homo sapiens, UniProt P08235); assay: MR reporter gene (transactivation) assay, CHO-Gal4/MR; format: cell-based
# T1 construct: host or cells: CHO (DSMZ ACC-110), CHO-Gal4/MR
# T1 sequence (P08235 726-964 limits assumed): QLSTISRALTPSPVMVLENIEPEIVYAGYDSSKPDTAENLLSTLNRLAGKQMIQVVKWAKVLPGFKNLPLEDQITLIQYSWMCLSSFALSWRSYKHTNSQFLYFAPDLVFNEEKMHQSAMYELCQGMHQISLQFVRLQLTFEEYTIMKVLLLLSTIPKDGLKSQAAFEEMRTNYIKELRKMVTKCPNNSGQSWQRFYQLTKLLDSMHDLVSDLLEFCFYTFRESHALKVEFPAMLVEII
# Source text: To create the CHO-Gal4/GR, CHO-Gal4/PR, and CHO-Gal4/MR reporter cell lines, first CHO cells were stably transfected with a GAL4-UAS-luciferase reporter construct. Then, the LBD of the GR, PR, or MR (GR Gene ID: 2908, PR Gene ID: 5241, MR Gene ID: 4306, respectively) was cloned into pIRES2-EGFP-GAL4 containing the DBD of GAL4 from pFA-AT2, and then co-transfected into the luciferase-reporter construct-containing CHO cells. These reporter cell lines express the respective nuclear hormone receptor LBD-DBD fusion proteins that control luciferase expression of a GAL4-upstream activation sequence (UAS)-luciferase reporter construct, allowing for detection of ligand- or compound-induced transactivation at the GR, PR, or MR by measuring luciferase activity.
# Cryo-preserved CHO-Gal4/GR, CHO-Gal4/PR, and CHO-Gal4/MR cells were plated in medium at 7,500 cells/well in 384-well assay plates (25 μL/well), and incubated for 24 h. […] Following a 4-h incubation, cells were lysed and luminescence measured using the EMCCD camera FLIPR®Tetra (Molecular Devices, Silicon Valley, CA, United States).
# Transactivation (i.e., gene activation) was expressed as a percentage of the reference agonist activity (Supplementary Material), using Genedata Screener® v15.0.5 software (Basel, Switzerland).
# Transactivation was calculated according to this equation: […]
# [1] = tested on: IL-1β–induced IL-6 release in A549 cells; assay: Inhibition of IL-1β–induced IL-6 release in A549 cells; format: cell-based, human
# Description: Cells from the human lung epithelial cell line A549 (CCL-185, ATCC) were seeded in 96-well plates at a density of […] in F12K Nutrient Mix (Gibco™, ThermoFisher Scientific, Waltham, MA, United States) with 10% fetal calf serum (FCS), and cultured for 24 h in standard conditions. […] After 30 min’ incubation, human IL-1β (1 ng/mL final concentration) was added at 50 µL/well, followed by a 20 h-incubation in standard conditions. Human IL-6 was measured in the collected supernatant using the human AlphaLISA® immunoassay kit (PerkinElmer; Supplementary Material).
# Per the human AlphaLISA® (PerkinElmer) immunoassay kit instructions, the immuno-assay buffer was diluted 1:10 in water and the human IL-6 analyte standard was diluted in FCS-free F12K nutrient mix (30,000–10 pg/mL). Each standard dilution or sample (5 μL each) was added to the wells of a 96-well polystyrene compound plate, to which 20 µL of the test mix 1 (containing anti-IL-6 acceptor beads and biotinylated anti-IL-6 antibody diluted 1:200 in immuno-assay-buffer) was added to each well and incubated for 1 h at room temperature. Afterwards, donor beads were diluted 1:62.5 in immuno-assay-buffer and 25 µL were transferred to each well. After a 30-min incubation at room temperature, the plates were read using an EnVision Multilabel Reader® (PerkinElmer) equipped with the ALPHA option.
# [2] = tested on: TNF-α–induced IL-6 release from primary fibroblast-like synoviocytes; assay: Inhibition of TNF-α–induced IL-6 release by primary FLS from rheumatoid arthritis patients; format: cell-based, human; conditions: for IL-6 concentration: replicate wells 1-3
# Description: In this assay, conducted by BioIVT (Hertfordshire, United Kingdom), primary FLS were obtained from three donors with rheumatoid arthritis and seeded at passage 4 in FGM™-2 fibroblast growth medium (Lonza) in 96-well plates at a density of […], and incubated overnight in standard conditions. […] Negative controls were TNF-α alone and culture medium alone, and vehicle control was DMSO (0.1%). IL-6 was measured in collected supernatant using an enzyme-linked immunosorbent assay (ELISA, R&D Systems Minneapolis, MN, United States) according to the manufacturer’s instructions.
# % inhibition= compound -maxmin- max ×100
# [3] = tested on: IFN-γ release in human whole blood; set-up: method as in Hu et al., 2011; conditions: at concentrations each of 100–1000 nM ref Hu et al., 2011; cited from earlier work
smiles,measurement,setting,value
C[C@]12C=CC(=O)C=C1CC[C@@H]1[C@@H]2[C@@H](O)C[C@@]2(C)[C@H]1CC[C@]2(O)C(=O)CO [Prednisolone],EC50,human MR; 4-h incubation,11.8 ± 3.2 nM
same,"MR transactivation, mean activation",human MR; % of reference agonist fludrocortisone,66.4 ± 4.7%
same,Inhibition of IL-1β–induced IL-6 release,[1]; 100% = 1 μM dexamethasone,101 ± 2.7%
same,IC50,"[1]; Homo sapiens, IL-1β 1 ng/mL, 20 h",0.86 ± 0.13 nM
same,IL-6 concentration,"[2]; Donor 1, compound −5 log M",260.7 pg/mL and 224.6 pg/mL and 206.6 pg/mL
same,IL-6 concentration,"[2]; Donor 1, compound −6 log M",269.7 pg/mL and 215.6 pg/mL and 206.6 pg/mL
same,IL-6 concentration,"[2]; Donor 1, compound −7 log M",292.3 pg/mL and 274.3 pg/mL and 238.1 pg/mL
same,IL-6 concentration,"[2]; Donor 1, compound −8 log M",616.3 pg/mL and 483.3 pg/mL and 446.8 pg/mL
same,IL-6 concentration,"[2]; Donor 1, compound −9 log M",988.4 pg/mL and 736.4 pg/mL and 685.5 pg/mL
same,IL-6 concentration,"[2]; Donor 1, compound −10 log M",880.6 pg/mL and 778.2 pg/mL and 796.8 pg/mL
same,IL-6 concentration,"[2]; Donor 1, compound −11 log M",964.9 pg/mL and 801.4 pg/mL and 731.8 pg/mL
same,IL-6 concentration,"[2]; Donor 1, compound −12 log M",946.2 pg/mL and 768.9 pg/mL and 708.6 pg/mL
same,IL-6 concentration,"[2]; Donor 1, compound −13 log M",1101.6 pg/mL and 838.7 pg/mL and 755.0 pg/mL
same,IL-6 concentration,"[2]; Donor 1, compound −14 log M",1106.3 pg/mL and 960.2 pg/mL and 880.6 pg/mL
same,IL-6 concentration,"[2]; Donor 2, compound −5 log M",516.5 pg/mL and 385.6 pg/mL and 394.9 pg/mL
same,IL-6 concentration,"[2]; Donor 2, compound −6 log M",521.2 pg/mL and 394.9 pg/mL and 381.0 pg/mL
same,IL-6 concentration,"[2]; Donor 2, compound −7 log M",554.0 pg/mL and 394.9 pg/mL and 404.3 pg/mL
same,IL-6 concentration,"[2]; Donor 2, compound −8 log M",848.1 pg/mL and 695.7 pg/mL and 681.5 pg/mL
same,IL-6 concentration,"[2]; Donor 2, compound −9 log M",1338.8 pg/mL and 1045.5 pg/mL and 1157.3 pg/mL
same,IL-6 concentration,"[2]; Donor 2, compound −10 log M",1309.2 pg/mL and 1108.6 pg/mL and 1215.9 pg/mL
same,IL-6 concentration,"[2]; Donor 2, compound −11 log M",1497.4 pg/mL and 1079.5 pg/mL and 2570.2 pg/mL
same,IL-6 concentration,"[2]; Donor 2, compound −12 log M",1427.8 pg/mL and 1215.9 pg/mL and 1123.2 pg/mL
same,IL-6 concentration,"[2]; Donor 2, compound −13 log M",2326.4 pg/mL and 1123.2 pg/mL and 1142.7 pg/mL
same,IL-6 concentration,"[2]; Donor 2, compound −14 log M",1552.3 pg/mL and 1393.1 pg/mL and 1255.1 pg/mL
same,IL-6 concentration,"[2]; Donor 3, compound −5 log M",172.0 pg/mL and 199.6 pg/mL and 166.5 pg/mL
same,IL-6 concentration,"[2]; Donor 3, compound −6 log M",170.2 pg/mL and 159.2 pg/mL and 179.4 pg/mL
same,IL-6 concentration,"[2]; Donor 3, compound −7 log M",221.8 pg/mL and 220.0 pg/mL and 214.4 pg/mL
same,IL-6 concentration,"[2]; Donor 3, compound −8 log M",621.9 pg/mL and 428.5 pg/mL and 386.6 pg/mL
same,IL-6 concentration,"[2]; Donor 3, compound −9 log M",645.5 pg/mL and 847.5 pg/mL and 637.6 pg/mL
same,IL-6 concentration,"[2]; Donor 3, compound −10 log M",1022.6 pg/mL and 1127.9 pg/mL and 983.0 pg/mL
same,IL-6 concentration,"[2]; Donor 3, compound −11 log M",774.8 pg/mL and 813.1 pg/mL and 796.9 pg/mL
same,IL-6 concentration,"[2]; Donor 3, compound −12 log M",904.7 pg/mL and 837.4 pg/mL and 859.7 pg/mL
same,IL-6 concentration,"[2]; Donor 3, compound −13 log M",956.1 pg/mL and 937.5 pg/mL and 1151.3 pg/mL
same,IL-6 concentration,"[2]; Donor 3, compound −14 log M",888.3 pg/mL and 831.3 pg/mL and 947.8 pg/mL
same,IC50,"[2]; Homo sapiens, primary FLS from three RA donors, 24 h",5.6 ± 2.3 nM
same,Inhibition (efficacy) of TNF-α–induced IL-6 release,"[2]; primary FLS from three RA donors, 24 h",79.8 ± 7.6%
same,inhibition of IFN-γ release in human whole blood,[3],85–100%
